Experimental data as given in patent US20260256934A1, “ANTIBODY-DRUG CONJUGATE INCLUDING MUTANT Fc REGION” (DAIICHI SANKYO COMPANY, LIMITED, priority 2022, published 2026).

Experiments:
[1] = target: T1, human REF mutant (Hu-REF) STING C-terminal binding domain protein (Homo sapiens, UniProt Q86WV6); assay: Thermal shift assay with recombinant STING C-terminal binding domain protein (Hu-REF); settings: test compound 0.5 mM; Tm minus Tm of well without compound
T1 construct: made in house; host or cells: E. coli Rosetta 2 (DE3), co-expressed with BirA
Method: (§1) Each expression strain was added to TB broth containing 100 μg/mL ampicillin, 50 μg/mL streptomycin, and 30 μg/mL kanamycin, and cultured at 37° C. Expression was then induced with 100 µM IPTG, and the cells were further cultured at 16° C.
(§2) The culture broth was centrifuged, and the obtained bacteria were frozen and thawed. The proteins were extracted by sonication, and the supernatant was collected by centrifugation. The resulting supernatant was purified through a HisTrap FF column (GE Healthcare) using an AKTAexpress chromatography system (GE Healthcare, IL, US), made to pass through a Superdex200 16/60 column (GE Healthcare), and eluted.
(§3) The binding of a compound to each STING C-terminal binding domain protein was determined by a thermal shift assay, which uses the increase in the thermal denaturation temperature of the protein as an indicator.
(§4) Specifically, each test compound (final concentration 0.5 mM), SYPRO Orange (final concentration: 20×concentration), and the STING protein were mixed in a 384-well real-time PCR plate using a plate shaker. […] Tm (the midpoint of the unfolding transition) (° C.) was determined as the temperature at which the rate of increase in fluorescence intensity reached its maximum value. The shift of Tm by the test compound was calculated as ΔTm (° C.) by subtracting, from the Tm value of each compound, the Tm value of the well without the compound.

[2] = target: T2, human wild-type (Hu-WT) STING C-terminal binding domain protein (Homo sapiens, UniProt Q86WV6, H232R); assay: Thermal shift assay with recombinant STING C-terminal binding domain protein (Hu-WT); settings: test compound 0.5 mM; Tm minus Tm of well without compound
T2 construct: made in house; host or cells: E. coli Rosetta 2 (DE3), co-expressed with BirA
Method: as §1, §2, §3, §4

[3] = target: T3, mouse wild type (Ms-WT) STING C-terminal binding domain protein (Mus musculus, UniProt Q3TBT3); assay: Thermal shift assay with recombinant STING C-terminal binding domain protein (Ms-WT); settings: test compound 0.5 mM; Tm minus Tm of well without compound
T3 construct: made in house; host or cells: E. coli Rosetta 2 (DE3), co-expressed with BirA
Method: as §1, §2, §3
Specifically, each test compound (final concentration 0.5 mM), SYPRO Orange (final concentration: 20×concentration), and the STING protein were mixed in a 384-well real-time PCR plate using a plate shaker. A real-time PCR system was used to increase the temperature from 25° C. to 95° C. at a rate of 0.03° C. per second, and the thermal denaturation temperature of the protein was measured using the fluorescence emitted by SYPRO Orange as an indicator. Tm (the midpoint of the unfolding transition) (° C.) was determined as the temperature at which the rate of increase in fluorescence intensity reached its maximum value. The shift of Tm by the test compound was calculated as ΔTm (° C.) by subtracting, from the Tm value of each compound, the Tm value of the well without the compound.

[4] = target: T4, human AQ mutant (Hu-AQ) STING C-terminal binding domain protein (Homo sapiens, UniProt Q86WV6, G230A/H232R/R293Q); assay: Thermal shift assay with recombinant STING C-terminal binding domain protein (Hu-AQ); settings: test compound 0.5 mM; Tm minus Tm of well without compound
T4 construct: made in house; host or cells: E. coli Rosetta 2 (DE3), co-expressed with BirA
Method: as §1, §2, §3, §4

human FcγRIIIb = target: T5, human FcγRIIIb (Homo sapiens, UniProt O75015); assay: Human FcγRIIIb binding activity by SPR; settings: anti-EGFR antibodies as analyte, 0.9-4.7 μM
T5 construct: purchased R&D systems
Method: (§5) The binding activity was determined by directly immobilizing human FcγR as a ligand onto a sensor chip, then adding each anti-EGFR antibody as an analyte to the sensor chip, and measuring the interaction between the ligand and the analyte by SPR. Recombinant Human Fc gammaRIIA/CD32a (R167) Protein (R&D systems) was immobilized as human FcγRIIa onto Sensor Chip CM5 according to the instructions of the kit. Then, the anti-EGFR antibody prepared at each concentration with HBS-EP+ was added to the sensor chip for 120 sec at a flow rate of 30 μL/min.
Recombinant Human Fc gamma RIIIB/CD16b Protein (R&D systems) was used as human FcγRIIIb.

human FcγRI = target: T6, human FcγRI (Homo sapiens, UniProt P12314); assay: Human FcγRI binding activity by SPR (Biacore T200); settings: anti-EGFR antibodies as analyte, 0.3-4.7 μM; His-tagged FcγRI captured
T6 construct: purchased R&D systems
Method: Anti-EGFR antibodies with various introduced effector-less mutations were evaluated for their binding activity against human FcγRI using Biacore T200 (Cytiva). […] The anti-EGFR antibody B used in the Test Example was obtained as HBS-EP+ solution by subjecting commercially available Vectibix Intravenous Infusion (Takeda Pharmaceuticals) (100 mg/5 mL) to buffer exchange using Amicon Ultra-15 Centrifugal Filter Unit (50K, produced by Merck). The binding activity was determined by allowing His-tagged human FcγRI to be captured as a ligand onto an anti-His antibody-immobilized sensor chip, then adding each anti-EGFR antibody as an analyte to the sensor chip, and measuring the interaction between the ligand and the analyte by Surface Plasmon Resonance (SPR). Anti-6× His tag antibody [AD1.1.10] (abcam) was immobilized onto Sensor Chip CM5 (Cytiva) according to the instructions of the kit. Recombinant Human Fc gamma RI/CD64 Protein (R&D systems) prepared at 10 μg/mL with HBS-EP+(GE Healthcare) was contacted with the sensor chip for 60 sec at 10 μL/min and thereby captured. Then, the anti-EGFR antibody prepared at each concentration with HBS-EP+ was added to the sensor chip for 120 sec at a flow rate of 30 μL/min.

human FcγRIIIa = target: T7, human FcγRIIIa (Homo sapiens, UniProt P08637); assay: Human FcγRIIIa binding activity by SPR; settings: anti-EGFR antibodies as analyte, 0.9-4.7 μM
T7 construct: purchased R&D systems
Method: as §5
Recombinant Human Fc gamma RIIIA/CD16a protein (R&D systems) was used as human FcγRIIIa.

human FcγRIIb/c = target: T8, human FcγRIIb/c (Homo sapiens, UniProt P31994); assay: Human FcγRIIb/c binding activity by SPR; settings: anti-EGFR antibodies as analyte, 0.9-4.7 μM
T8 construct: purchased R&D systems
T8 sequence (P31994 43-310): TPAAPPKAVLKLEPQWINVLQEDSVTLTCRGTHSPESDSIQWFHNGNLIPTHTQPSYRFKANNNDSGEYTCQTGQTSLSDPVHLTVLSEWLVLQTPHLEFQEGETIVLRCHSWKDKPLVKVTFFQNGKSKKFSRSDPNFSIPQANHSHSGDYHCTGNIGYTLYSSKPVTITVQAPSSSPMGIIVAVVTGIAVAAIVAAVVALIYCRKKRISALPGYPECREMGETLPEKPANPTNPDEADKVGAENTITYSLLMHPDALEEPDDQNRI
Method: as §5
Recombinant Human Fc gamma RIIB/C (CD32b/c) Protein (R&D systems) was used as human FcγRIIb/c.

T4 sequence (Q86WV6 with tags, fused parts or gaps G230A/H232R/R293Q): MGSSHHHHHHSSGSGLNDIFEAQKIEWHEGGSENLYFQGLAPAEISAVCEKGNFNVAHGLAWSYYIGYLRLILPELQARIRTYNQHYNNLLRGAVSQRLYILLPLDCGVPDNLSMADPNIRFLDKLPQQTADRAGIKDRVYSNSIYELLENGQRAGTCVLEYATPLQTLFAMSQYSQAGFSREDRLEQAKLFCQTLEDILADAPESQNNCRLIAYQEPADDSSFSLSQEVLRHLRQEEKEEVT
T1 sequence (Q86WV6 with tags, fused parts or gaps, change not shown): as the sequence (Q86WV6 with tags, fused parts or gaps G230A/H232R/R293Q) above, with A131G, R133H, Q194R counted along it
T3 sequence (Q3TBT3 with tags, fused parts or gaps): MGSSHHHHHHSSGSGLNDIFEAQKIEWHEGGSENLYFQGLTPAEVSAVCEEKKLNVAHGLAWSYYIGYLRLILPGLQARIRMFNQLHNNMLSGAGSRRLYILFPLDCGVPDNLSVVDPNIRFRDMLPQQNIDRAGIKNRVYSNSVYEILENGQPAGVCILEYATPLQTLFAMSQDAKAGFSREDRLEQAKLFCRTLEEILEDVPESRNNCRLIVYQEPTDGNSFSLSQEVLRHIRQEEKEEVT
T2 sequence (Q86WV6 with tags, fused parts or gaps H232R): as the sequence (Q86WV6 with tags, fused parts or gaps G230A/H232R/R293Q) above, with A131G, Q194R counted along it
T6 sequence (P12314 16-374): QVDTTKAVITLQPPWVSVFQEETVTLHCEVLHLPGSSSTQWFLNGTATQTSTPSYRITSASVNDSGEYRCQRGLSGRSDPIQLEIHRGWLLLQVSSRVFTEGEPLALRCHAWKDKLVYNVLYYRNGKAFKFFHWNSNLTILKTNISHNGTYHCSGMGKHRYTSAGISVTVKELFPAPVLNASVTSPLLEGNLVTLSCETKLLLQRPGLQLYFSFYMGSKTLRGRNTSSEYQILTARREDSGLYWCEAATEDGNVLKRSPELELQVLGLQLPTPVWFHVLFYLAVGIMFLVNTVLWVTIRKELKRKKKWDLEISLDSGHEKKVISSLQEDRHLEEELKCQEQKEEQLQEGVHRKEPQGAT
T5 sequence (O75015 17-200): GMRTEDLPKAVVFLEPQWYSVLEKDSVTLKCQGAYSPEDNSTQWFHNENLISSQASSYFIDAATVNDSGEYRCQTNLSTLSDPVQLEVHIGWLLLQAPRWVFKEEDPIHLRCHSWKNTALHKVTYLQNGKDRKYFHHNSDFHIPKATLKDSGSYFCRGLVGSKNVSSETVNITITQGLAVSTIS
T7 sequence (P08637 17-254): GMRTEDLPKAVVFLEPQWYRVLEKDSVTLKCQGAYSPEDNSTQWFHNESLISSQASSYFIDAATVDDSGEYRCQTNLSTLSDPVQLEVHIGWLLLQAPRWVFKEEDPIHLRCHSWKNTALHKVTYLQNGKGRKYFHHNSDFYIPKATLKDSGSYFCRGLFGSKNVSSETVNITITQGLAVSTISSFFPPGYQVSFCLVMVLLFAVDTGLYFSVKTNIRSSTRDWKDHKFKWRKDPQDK

| Molecule | ΔTm (° C.) Hu-REF [1] [°C] | ΔTm (° C.) Hu-WT [2] [°C] | ΔTm (° C.) Ms-WT [3] [°C] | ΔTm (° C.) Hu-AQ [4] [°C] | other results |
| --- | --- | --- | --- | --- | --- |
| O=c1c2ncn([C@@H]3O[C@@H]4COP(=O)(S)O[C@H]5[C@@H](O)[C@H](n6cc7c8c(ncnc86)NCCC7)O[C@@H]5COP(=O)(S)O[C@@H]3[C@@H]4O)c2ncn1CCO (single isomer, unassigned) [Compound 6b] | 3.4 | 8.4 | 12.9 | 11.3 |  |
| O=c1c2ncn([C@@H]3O[C@@H]4COP(=O)(S)O[C@H]5[C@@H](F)[C@H](n6cc7c8c(ncnc86)NCCC7)O[C@@H]5COP(=O)(S)O[C@@H]3[C@@H]4F)c2ncn1CCO (single isomer, unassigned) [Compound 44b] | 6.2 | 11.4 | 17.0 | 14.3 |  |
| O=c1c2ncn([C@@H]3O[C@@H]4COP(=O)(S)O[C@H]5[C@@H](F)[C@H](n6cc7c8c(ncnc86)NCCC7)O[C@@H]5COP(=O)(S)O[C@@H]3[C@@H]4O)c2ncn1CCO (single isomer, unassigned) [Compound 34b] | 6.5 | 12.0 | 16.7 | 14.0 |  |
| IgG2: IgG2-type anti-EGFR antibody, commercially available Vectibix Intravenous Infusion; heavy chain SEQ ID NO: 35 |  |  |  |  | RU value indicating binding to human FcγRIIIb (rank order) (human FcγRIIIb): IgG1 WT>LALA≈IgG2≈LALA-DG; RU value indicating binding to human FcγRI (rank order) (human FcγRI): IgG1 WT>>LALA>>IgG2>LALA-DG; RU value indicating binding to human FcγRIIIa (rank order) (human FcγRIIIa): IgG1 WT>LALA>IgG2>LALA-DG; RU value indicating binding to human FcγRIIb/c (rank order) (human FcγRIIb/c): IgG1 WT>IgG2>LALA>LALA-DG |
| O=c1c2ncn([C@@H]3O[C@@H]4COP(=O)(S)O[C@H]5[C@@H](F)[C@H](n6cc7c8c(ncnc86)SCCC7)O[C@@H]5COP(=O)(S)O[C@@H]3[C@@H]4O)c2ncn1CCO (single isomer, unassigned) [Compound 48b] | 7.3 | 14.0 | 15.8 | 17.8 |  |
| O=c1c2ncn([C@@H]3O[C@@H]4COP(=O)(O)O[C@H]5[C@@H](F)[C@H](n6cc7c8c(ncnc86)NCCC7)O[C@@H]5COP(=O)(S)O[C@@H]3[C@@H]4O)c2ncn1CCO (single isomer, unassigned) [Compound 52b] | 4.4 | 9.2 | 12.3 | 10.8 |  |
| O=c1c2ncn([C@@H]3O[C@@H]4COP(=O)(S)O[C@H]5[C@@H](O)[C@H](n6cc7c8c(ncnc86)NCCC7)O[C@@H]5COP(=O)(S)O[C@@H]3[C@@H]4F)c2ncn1CCO (single isomer, unassigned) [Compound 39b] |  |  |  |  | ΔTm at 500 µM [1]: 3.7 °C; ΔTm at 500 µM [2]: 8.9 °C; ΔTm at 500 µM [3]: 13.1 °C; ΔTm at 500 µM [4]: 10.5 °C |
